Reference: ChEMBL document CHEMBL5214960 (J Med Chem, 2022)
Substitutions are numbered along the chain they refer to.

Tests used:
[1] = target: Receptor-type tyrosine-protein phosphatase beta (Homo sapiens, UniProt P23467); assay: Inhibition of PTPbeta (unknown origin)
[2] = AUC(0 to 12 hrs) in Sprague-Dawley rat plasma at 3 mg/kg, po measured after 24 hrs by LC-MS/MS analysis; assay type: ADME, organism-based; parameters: time 24 hrs, dose 3 mg/kg, route po; conditions: in vivo
[3] = target: Dual specificity protein phosphatase 6 (Homo sapiens, UniProt Q16828); assay: Inhibition of MKP3 (unknown origin)
[4] = target: Receptor-type tyrosine-protein phosphatase mu (Homo sapiens, UniProt P28827); assay: Inhibition of PTPmu (unknown origin)
[5] = Oral bioavailability in CD-1 mouse plasma at 10 mg/kg measured after 8 hrs by LC-MS/MS analysis; assay type: ADME, organism-based; conditions: mouse, in vivo, po, 10 mg/kg, 8 h
[6] = target: T1, Low molecular weight phosphotyrosine protein phosphatase (Mus musculus, UniProt Q9D358); assay: Inhibition of N-terminal His-tagged full length mouse LMW-PTP expressed in Escherichia coli BL21(DE3) by […] analysis
T1 sequence (Q9D358 whole entry): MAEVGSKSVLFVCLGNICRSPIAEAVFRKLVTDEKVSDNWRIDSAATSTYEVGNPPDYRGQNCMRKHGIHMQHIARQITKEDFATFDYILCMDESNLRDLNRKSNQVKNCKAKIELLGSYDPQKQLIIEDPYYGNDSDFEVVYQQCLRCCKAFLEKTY

[7] = target: Tyrosine-protein phosphatase non-receptor type 2 (Homo sapiens, UniProt P17706); assay: Inhibition of TC-PTP (unknown origin)
[8] = Plasma protein binding in mouse assessed as unbound fraction measured after 4.5 hrs by LC-MS/MS analysis; assay type: ADME, cell-free
[9] = target: Tyrosine-protein phosphatase non-receptor type 3 (Homo sapiens, UniProt P26045); assay: Inhibition of PTPH1 (unknown origin)
[10] = target: T2, Low molecular weight phosphotyrosine protein phosphatase (Homo sapiens, UniProt P24666); assay: Competitive inhibition of LMW-PTP (unknown origin) assessed as inhibition constant by Lineweaver-Burk plot analysis
T2 sequence (P24666 whole entry): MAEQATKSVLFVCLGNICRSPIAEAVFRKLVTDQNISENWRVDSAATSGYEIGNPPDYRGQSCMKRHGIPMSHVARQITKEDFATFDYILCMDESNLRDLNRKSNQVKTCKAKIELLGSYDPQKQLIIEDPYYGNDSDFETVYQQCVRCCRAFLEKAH

[11] = Half life in Sprague-Dawley rat plasma at 30 mg/kg, po measured after 24 hrs by LC-MS/MS analysis; assay type: ADME, organism-based; conditions: in vivo
[12] = Cmax in CD-1 mouse plasma at 10 mg/kg, po measured after 8 hrs by LC-MS/MS analysis; assay type: ADME, organism-based; parameters: dose 10 mg/kg, time 8 hrs, route po; conditions: mouse, in vivo, 8 h
[13] = target: RNA polymerase II subunit A C-terminal domain phosphatase SSU72 (Homo sapiens, UniProt Q9NP77); assay: Inhibition of SSU72 (unknown origin)
CYP2C9 = CYP2C9 (Homo sapiens, UniProt P11712); assay: Inhibition of human hepatic CYP2C9 using diclofenac as substrate measured after 10 mins by LC-MS analysis relative to control; assay type: ADME, tissue-based; parameters: concentration or dose not given beside the values; conditions: human hepatic CYP2C9 (liver), probe diclofenac
[14] = target: Receptor-type tyrosine-protein phosphatase epsilon (Homo sapiens, UniProt P23469); assay: Inhibition of PTPepsilon (unknown origin)
[15] = target: Receptor-type tyrosine-protein phosphatase S (Homo sapiens, UniProt Q13332); assay: Inhibition of PTPsigma (unknown origin)
[16] = target: T3, Low molecular weight phosphotyrosine protein phosphatase (Rattus norvegicus, UniProt P41498); assay: Inhibition of N-terminal His-tagged full length rat LMW-PTP expressed in Escherichia coli BL21(DE3)
T3 sequence (P41498 whole entry): T1 sequence (Q9D358 whole entry) with K35N, R65K, K80R, Y158H

[17] = target: Tyrosine-protein phosphatase non-receptor type 1 (Homo sapiens, UniProt P18031); assay: Inhibition of PTP1B (unknown origin)
[18] = Cmax in Sprague-Dawley rat plasma at 3 mg/kg, po measured after 24 hrs by LC-MS/MS analysis; assay type: ADME, organism-based; parameters: time 24 hrs, dose 3 mg/kg, route po; conditions: in vivo
[19] = Inhibition of PTP-Meg2 (unknown origin); parameters: species or system Homo sapiens
[20] = AUC(0 to 8 hrs) in CD-1 mouse plasma at 10 mg/kg, po measured after 8 hrs by LC-MS/MS analysis; assay type: ADME, organism-based; parameters: dose 10 mg/kg, time 8 hrs, route po; conditions: in vivo
[21] = target: Tyrosine-protein phosphatase non-receptor type 7 (Homo sapiens, UniProt P35236); assay: Inhibition of HePTP (unknown origin)
[22] = target: Tyrosine-protein phosphatase non-receptor type 13 (Homo sapiens, UniProt Q12923); assay: Inhibition of FAP-1(unknown origin)
[23] = Half life in Sprague-Dawley rat plasma at 3 mg/kg, po measured after 24 hrs by LC-MS/MS analysis; assay type: ADME, organism-based; conditions: in vivo
[24] = target: Tyrosine-protein phosphatase non-receptor type 6 (Homo sapiens, UniProt P29350); assay: Inhibition of SHP1 (unknown origin)
[25] = target: Dual specificity protein phosphatase 3 (Homo sapiens, UniProt P51452); assay: Inhibition of VHR (unknown origin)
CYP2D6 = CYP2D6 (Homo sapiens, UniProt P10635); assay: Inhibition of human hepatic CYP2D6 using bufuralol HCL as substrate measured after 3 mins by LC-MS analysis relative to control; assay type: ADME, tissue-based; parameters: concentration or dose not given beside the values; conditions: human hepatic CYP2D6 (liver), probe bufuralol HCl
[26] = target: Receptor-type tyrosine-protein phosphatase alpha (Homo sapiens, UniProt P18433); assay: Inhibition of PTPalpha (unknown origin)
[27] = Unbound Cmax in plasma of CD-1 mouse at 2 mg/kg, iv measured after 8 hrs by LC-MS/MS analysis; assay type: ADME, organism-based; conditions: in vivo
[28] = target: Serine/threonine-protein phosphatase 5 (Homo sapiens, UniProt P53041); assay: Inhibition of PP5 (unknown origin)
[29] = Metabolic stability in mouse hepatic microsome at 4 uM measured after 30 mins by LC-MS analysis; assay type: ADME; conditions: liver microsomes, read-out: Stability
[30] = Cmax in Sprague-Dawley rat plasma at 30 mg/kg, po measured after 24 hrs by LC-MS/MS analysis; assay type: ADME, organism-based; parameters: time 24 hrs, dose 30 mg/kg, route po; conditions: in vivo
[31] = target: Receptor-type tyrosine-protein phosphatase C (Homo sapiens, UniProt P08575); assay: Inhibition of CD45 (unknown origin)
[32] = target: Receptor-type tyrosine-protein phosphatase gamma (Homo sapiens, UniProt P23470); assay: Inhibition of PTPgamma (unknown origin)
[33] = target: T2, Low molecular weight phosphotyrosine protein phosphatase; assay: Inhibition of His-tagged human LMW-PTP expressed in Escherichia coli BL21 using pNPP as substrate incubated for 10 mins by microplate reader based spectrophotometric analysis
[34] = Volume of distribution at steady state in CD-1 mouse plasma at 2 mg/kg, iv measured after 8 hrs by LC-MS/MS analysis; assay type: ADME, organism-based; conditions: in vivo
[35] = Unbound Cmax in plasma of CD-1 mouse at 10 mg/kg, po measured after 8 hrs by LC-MS/MS analysis; assay type: ADME, organism-based; conditions: in vivo
[36] = Tmax in Sprague-Dawley rat plasma at 30 mg/kg, po measured after 24 hrs by LC-MS/MS analysis; assay type: ADME, organism-based; conditions: in vivo

Sequence of Receptor-type tyrosine-protein phosphatase S (Q13332 whole entry): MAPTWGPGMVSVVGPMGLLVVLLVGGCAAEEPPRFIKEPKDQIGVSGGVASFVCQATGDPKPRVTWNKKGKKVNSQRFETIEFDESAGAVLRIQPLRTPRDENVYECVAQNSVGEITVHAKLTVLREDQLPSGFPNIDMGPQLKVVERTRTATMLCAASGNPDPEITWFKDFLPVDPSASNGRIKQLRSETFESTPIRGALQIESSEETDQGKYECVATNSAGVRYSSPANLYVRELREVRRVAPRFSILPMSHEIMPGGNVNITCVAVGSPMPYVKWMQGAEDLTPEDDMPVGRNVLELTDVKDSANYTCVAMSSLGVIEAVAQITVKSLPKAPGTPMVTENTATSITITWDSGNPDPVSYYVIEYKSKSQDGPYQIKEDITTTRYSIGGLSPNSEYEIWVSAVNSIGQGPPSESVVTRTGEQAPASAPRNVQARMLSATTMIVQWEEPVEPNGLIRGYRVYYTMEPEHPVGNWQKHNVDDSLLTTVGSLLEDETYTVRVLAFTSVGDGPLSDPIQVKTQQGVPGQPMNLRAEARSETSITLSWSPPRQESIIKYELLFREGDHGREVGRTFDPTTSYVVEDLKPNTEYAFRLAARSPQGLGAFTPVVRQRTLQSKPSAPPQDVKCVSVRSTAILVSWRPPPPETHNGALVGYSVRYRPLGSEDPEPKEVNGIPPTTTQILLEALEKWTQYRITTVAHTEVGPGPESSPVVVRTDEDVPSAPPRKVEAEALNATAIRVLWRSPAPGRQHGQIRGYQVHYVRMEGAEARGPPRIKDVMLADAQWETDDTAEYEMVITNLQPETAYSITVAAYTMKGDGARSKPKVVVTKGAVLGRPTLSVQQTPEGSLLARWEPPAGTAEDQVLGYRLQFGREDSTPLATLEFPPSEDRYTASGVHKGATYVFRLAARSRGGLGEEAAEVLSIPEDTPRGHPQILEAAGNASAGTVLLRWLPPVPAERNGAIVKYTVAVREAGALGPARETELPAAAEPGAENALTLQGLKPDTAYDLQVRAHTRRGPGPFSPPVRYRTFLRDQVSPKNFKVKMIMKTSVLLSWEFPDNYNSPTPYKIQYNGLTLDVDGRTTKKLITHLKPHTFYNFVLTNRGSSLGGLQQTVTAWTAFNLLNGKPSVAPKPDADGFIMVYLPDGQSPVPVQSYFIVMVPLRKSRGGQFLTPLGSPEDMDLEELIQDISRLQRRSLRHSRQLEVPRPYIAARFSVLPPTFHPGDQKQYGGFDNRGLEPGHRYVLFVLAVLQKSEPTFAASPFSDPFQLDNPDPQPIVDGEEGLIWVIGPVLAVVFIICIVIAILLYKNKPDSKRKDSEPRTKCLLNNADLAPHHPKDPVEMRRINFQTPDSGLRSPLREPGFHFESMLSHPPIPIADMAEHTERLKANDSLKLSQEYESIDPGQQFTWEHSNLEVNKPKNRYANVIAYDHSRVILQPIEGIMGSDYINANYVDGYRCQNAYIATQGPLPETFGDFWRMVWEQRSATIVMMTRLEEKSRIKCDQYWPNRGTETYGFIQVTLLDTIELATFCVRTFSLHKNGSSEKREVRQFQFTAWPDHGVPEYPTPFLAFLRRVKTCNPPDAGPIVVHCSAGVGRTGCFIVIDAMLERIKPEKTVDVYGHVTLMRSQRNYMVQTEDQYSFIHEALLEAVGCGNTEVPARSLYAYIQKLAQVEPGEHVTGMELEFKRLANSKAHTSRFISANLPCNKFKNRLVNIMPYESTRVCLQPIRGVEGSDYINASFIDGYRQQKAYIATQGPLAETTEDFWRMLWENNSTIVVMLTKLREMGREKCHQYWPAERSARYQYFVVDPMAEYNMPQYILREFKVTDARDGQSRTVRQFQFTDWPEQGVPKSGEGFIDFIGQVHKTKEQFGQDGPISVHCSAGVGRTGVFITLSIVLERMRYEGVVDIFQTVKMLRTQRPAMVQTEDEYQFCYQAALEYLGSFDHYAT
Sequence of Tyrosine-protein phosphatase non-receptor type 7 (P35236 whole entry): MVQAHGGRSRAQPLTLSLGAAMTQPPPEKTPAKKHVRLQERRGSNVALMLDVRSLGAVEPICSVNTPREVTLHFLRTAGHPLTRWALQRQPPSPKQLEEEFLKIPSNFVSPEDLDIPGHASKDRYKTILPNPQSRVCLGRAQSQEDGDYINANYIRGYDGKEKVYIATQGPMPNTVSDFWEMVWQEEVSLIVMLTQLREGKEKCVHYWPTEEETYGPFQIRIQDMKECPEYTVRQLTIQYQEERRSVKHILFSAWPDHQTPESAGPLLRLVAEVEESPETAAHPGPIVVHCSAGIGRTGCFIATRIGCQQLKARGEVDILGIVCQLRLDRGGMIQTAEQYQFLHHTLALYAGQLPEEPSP
Sequence of Receptor-type tyrosine-protein phosphatase mu (P28827 whole entry): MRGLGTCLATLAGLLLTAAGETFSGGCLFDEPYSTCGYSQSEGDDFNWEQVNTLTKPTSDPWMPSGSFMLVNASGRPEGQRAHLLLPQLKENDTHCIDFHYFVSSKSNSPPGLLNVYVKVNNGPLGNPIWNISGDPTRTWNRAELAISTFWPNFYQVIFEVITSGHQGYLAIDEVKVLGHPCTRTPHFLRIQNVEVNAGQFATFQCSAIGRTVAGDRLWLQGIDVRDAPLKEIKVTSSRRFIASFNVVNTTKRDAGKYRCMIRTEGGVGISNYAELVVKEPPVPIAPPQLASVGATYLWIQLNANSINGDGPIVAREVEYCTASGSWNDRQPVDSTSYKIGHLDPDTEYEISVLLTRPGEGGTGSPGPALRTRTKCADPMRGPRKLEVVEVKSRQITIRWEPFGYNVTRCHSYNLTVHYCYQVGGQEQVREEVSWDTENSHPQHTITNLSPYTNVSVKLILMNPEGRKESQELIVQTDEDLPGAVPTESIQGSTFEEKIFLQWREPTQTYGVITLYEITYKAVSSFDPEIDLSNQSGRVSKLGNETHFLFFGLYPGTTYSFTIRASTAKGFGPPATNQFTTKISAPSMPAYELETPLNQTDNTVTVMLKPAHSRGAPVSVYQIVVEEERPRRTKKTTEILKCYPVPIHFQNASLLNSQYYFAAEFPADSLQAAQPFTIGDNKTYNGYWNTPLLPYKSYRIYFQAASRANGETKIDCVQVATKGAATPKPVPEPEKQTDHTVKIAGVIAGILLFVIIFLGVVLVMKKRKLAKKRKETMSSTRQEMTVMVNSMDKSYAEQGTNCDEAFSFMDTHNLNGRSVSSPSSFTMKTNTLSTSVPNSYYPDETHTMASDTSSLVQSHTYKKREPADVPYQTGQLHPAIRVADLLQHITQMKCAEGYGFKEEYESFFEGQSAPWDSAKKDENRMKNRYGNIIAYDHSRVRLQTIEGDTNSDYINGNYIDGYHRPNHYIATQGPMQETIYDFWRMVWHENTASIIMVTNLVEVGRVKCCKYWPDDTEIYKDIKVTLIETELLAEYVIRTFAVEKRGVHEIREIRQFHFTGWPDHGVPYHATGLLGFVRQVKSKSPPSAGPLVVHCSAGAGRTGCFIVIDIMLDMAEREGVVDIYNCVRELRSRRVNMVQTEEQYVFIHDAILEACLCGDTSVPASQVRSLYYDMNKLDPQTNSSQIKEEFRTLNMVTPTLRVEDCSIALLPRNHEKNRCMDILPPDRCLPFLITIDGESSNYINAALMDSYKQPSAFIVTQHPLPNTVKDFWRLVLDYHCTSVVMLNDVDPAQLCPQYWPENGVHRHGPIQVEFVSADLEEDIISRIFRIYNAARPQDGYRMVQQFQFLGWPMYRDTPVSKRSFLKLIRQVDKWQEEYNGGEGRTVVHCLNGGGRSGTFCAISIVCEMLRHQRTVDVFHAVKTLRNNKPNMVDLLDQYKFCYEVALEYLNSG
Sequence of RNA polymerase II subunit A C-terminal domain phosphatase SSU72 (Q9NP77 whole entry, the tested form may be a part): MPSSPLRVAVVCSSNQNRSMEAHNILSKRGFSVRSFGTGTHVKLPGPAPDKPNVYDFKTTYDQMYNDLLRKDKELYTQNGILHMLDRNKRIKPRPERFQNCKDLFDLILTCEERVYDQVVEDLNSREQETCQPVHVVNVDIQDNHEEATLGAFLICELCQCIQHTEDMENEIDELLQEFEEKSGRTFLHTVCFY
Sequence of Tyrosine-protein phosphatase non-receptor type 1 (P18031 whole entry): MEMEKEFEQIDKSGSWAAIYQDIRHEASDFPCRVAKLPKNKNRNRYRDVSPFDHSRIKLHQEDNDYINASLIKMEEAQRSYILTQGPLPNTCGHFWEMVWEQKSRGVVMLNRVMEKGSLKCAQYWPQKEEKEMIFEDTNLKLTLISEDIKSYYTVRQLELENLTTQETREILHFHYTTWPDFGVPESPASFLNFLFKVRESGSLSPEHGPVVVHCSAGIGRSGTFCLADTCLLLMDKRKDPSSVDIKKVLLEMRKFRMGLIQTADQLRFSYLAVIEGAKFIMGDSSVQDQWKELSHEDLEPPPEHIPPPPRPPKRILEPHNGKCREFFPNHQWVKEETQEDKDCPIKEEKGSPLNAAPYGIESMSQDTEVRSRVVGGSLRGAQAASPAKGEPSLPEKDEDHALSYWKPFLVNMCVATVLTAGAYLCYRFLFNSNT
Sequence of Serine/threonine-protein phosphatase 5 (P53041 whole entry): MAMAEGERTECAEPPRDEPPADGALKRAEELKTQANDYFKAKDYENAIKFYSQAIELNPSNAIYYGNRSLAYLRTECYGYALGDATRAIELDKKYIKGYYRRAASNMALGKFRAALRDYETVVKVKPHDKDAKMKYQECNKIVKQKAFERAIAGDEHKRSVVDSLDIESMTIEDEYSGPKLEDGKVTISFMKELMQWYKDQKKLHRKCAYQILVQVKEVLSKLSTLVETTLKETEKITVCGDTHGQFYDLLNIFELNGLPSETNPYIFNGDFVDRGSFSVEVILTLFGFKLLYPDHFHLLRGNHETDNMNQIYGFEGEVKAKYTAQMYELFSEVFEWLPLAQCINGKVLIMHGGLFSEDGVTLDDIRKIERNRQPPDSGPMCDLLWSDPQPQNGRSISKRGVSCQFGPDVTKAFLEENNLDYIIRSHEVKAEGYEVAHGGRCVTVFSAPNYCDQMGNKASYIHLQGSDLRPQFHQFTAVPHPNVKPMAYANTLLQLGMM
Sequence of Dual specificity protein phosphatase 3 (P51452 whole entry): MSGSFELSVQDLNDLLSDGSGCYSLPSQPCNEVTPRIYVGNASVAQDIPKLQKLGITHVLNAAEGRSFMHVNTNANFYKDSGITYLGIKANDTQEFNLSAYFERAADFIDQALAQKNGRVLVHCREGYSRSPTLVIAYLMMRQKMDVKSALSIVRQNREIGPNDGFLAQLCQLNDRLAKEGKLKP

With `Cc1c(Br)cc(NC(=O)NS(=O)(=O)O)cc1Br` the IC50 [1] was > 10 µM, the AUC [2] was 4.66 µM·h and the IC50 [3] was > 10 µM. The IC50 [4] was > 10 µM, the F [5] was 34% and the IC50 [6] was 0.003 µM. The IC50 [7] was > 10 µM, the Fu [8] was 0.024 and the IC50 [9] was > 10 µM. The Ki [10] was 0.0012 µM, the t1/2 [11] was 2.8 h and the Cmax [12] was 9.69 µM. For the same molecule, the IC50 [13] was > 10 µM, the inhibition at 10 min (CYP2C9) was 0% and the IC50 [14] was > 10 µM. The IC50 [15] was > 10 µM, the IC50 [16] was 0.003 µM and the IC50 [17] was > 10 µM. For the same molecule, the Cmax [18] was 0.877 µM, the IC50 [19] was > 10 µM and the AUC [20] was 37.3 µM·h. The IC50 [21] was > 10 µM, the IC50 [22] was > 10 µM and the t1/2 [23] was 2.4 h. For the same molecule, the IC50 [24] was > 10 µM, the IC50 [25] was > 10 µM and the inhibition at 0.05 h (CYP2D6) was 2%. The IC50 [26] was > 10 µM, the fCmax [27] was 322 nM and the IC50 [28] was > 10 µM. The remaining at 0.5 h, 4 µM [29] was 30%, the Cmax [30] was 6.59 µM and the IC50 [31] was > 10 µM. For the same molecule, the IC50 [32] was > 10 µM, the IC50 [33] was 0.004 µM and the Vdss [34] was 0.42 L/kg. For the same molecule, the fCmax [35] was 233 nM and the Tmax [36] was 2.7 h.
